Results reported in patent publication US7799809B2, “Carboxamide compounds and their use as calpain inhibitors” (Abbott GmbH & Co. KG, priority 2006, dated 2010).

What was measured:
Format in all cases: biochemical
[1] = target: T1, cathepsin S (Homo sapiens, UniProt P25774); test: Cathepsin S enzyme inhibition in vitro (kinetic fluorescence assay); settings: recombinant human cathepsin S vs calpain I
T1 construct: purchased Calbiochem 219343; host or cells: E. coli
Procedure, shortened: (§1)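 Kinetic fluorescence (ex 390/em 460 nm) at room temperature in 50 mM MES, 2 mM EDTA, 0.05% Brij 35, 2.5 mM L-cysteine, pH 6.0. Cathepsin B (liver, 0.25 nM) with 100 μM Z-Phe-Arg-AMC; cathepsin L (liver, 1 nM) with 2 μM Z-Phe-Arg-AMC; recombinant E. coli cathepsin S (0.5 nM) with 20 μM Z-Val-Val-Arg-AMC. Ki via Cheng-Prusoff.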

[2] = target: T2, cathepsin B (Homo sapiens, UniProt P07858); test: Cathepsin B enzyme inhibition in vitro (kinetic fluorescence assay); settings: cathepsin B isolated from human liver vs calpain I
T2 construct: cathepsin B—isolated from human liver (Calbiochem #219362); purchased Calbiochem 219362; host or cells: human liver (tissue-derived)
Procedure, shortened: as §1

[3] = target: T3, cathepsin K (Homo sapiens, UniProt P43235); test: Cathepsin K enzyme inhibition in vitro (kinetic fluorescence assay); settings: cathepsin K activated from recombinant human procathepsin K vs calpain I
T3 construct: purchased Calbiochem 342001; host or cells: E. coli
T3 sequence (P43235 115-329): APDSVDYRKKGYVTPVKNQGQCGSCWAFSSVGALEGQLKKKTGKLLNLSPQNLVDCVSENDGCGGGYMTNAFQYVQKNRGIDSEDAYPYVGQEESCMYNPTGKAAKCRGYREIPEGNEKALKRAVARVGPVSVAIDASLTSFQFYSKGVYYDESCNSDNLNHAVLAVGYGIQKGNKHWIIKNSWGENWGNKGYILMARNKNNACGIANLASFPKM

[4] = target: T4, cathepsin L (Homo sapiens, UniProt P07711); test: Cathepsin L enzyme inhibition in vitro (kinetic fluorescence assay); settings: cathepsin L isolated from human liver vs calpain I
T4 construct: cathepsin L—isolated from human liver (Calbiochem #219402); purchased Calbiochem 219402; host or cells: human liver (tissue-derived)
T4 sequence (P07711 114-333): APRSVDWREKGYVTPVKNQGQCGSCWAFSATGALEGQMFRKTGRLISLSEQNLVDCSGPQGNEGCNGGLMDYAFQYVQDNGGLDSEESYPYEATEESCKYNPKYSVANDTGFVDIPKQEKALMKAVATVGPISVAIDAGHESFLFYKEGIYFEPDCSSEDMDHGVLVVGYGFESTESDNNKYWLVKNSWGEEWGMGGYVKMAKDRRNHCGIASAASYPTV
Procedure, shortened: as §1

T1 sequence (P25774 115-331): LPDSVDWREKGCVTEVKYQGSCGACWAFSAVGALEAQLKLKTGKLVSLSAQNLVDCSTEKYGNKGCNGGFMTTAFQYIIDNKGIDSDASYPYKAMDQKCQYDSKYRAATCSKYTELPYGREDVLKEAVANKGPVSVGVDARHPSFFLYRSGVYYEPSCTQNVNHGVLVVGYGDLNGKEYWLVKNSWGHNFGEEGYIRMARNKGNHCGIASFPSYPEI

## NC(=O)C(=O)C(Cc1ccccc1)NC(=O)c1cccnc1-n1ccc(-c2ccc(F)cc2)n1 (centres unmarked) [Example 38, N-(3-Amino-1-benzyl-2,3-dioxopropyl)-2-[3-(4-fluorophenyl)-1H-pyrazol-1-yl]nicotinamide]
[1]
  Sel cat. S: Ki(cathepsin S)/Ki(calpain) ratio: ++ (++ means a Ki(cathepsin S)/Ki(calpain) ratio of ≧100)
[2]
  Sel cat. B: Ki(cathepsin B)/Ki(calpain) ratio: + (+ means 10≦Ki(cathepsin B)/Ki(calpain)<30)
[3]
  Sel cat. K: Ki(cathepsin K)/Ki(calpain) ratio: + (+ means 10≦Ki(cathepsin K)/Ki(calpain)<30)
[4]
  Sel cat. L: Ki(cathepsin L)/Ki(calpain) ratio: ++ (++ means a Ki(cathepsin L)/Ki(calpain) ratio of ≧50)

## COc1c(C)cc(C)cc1-c1ccn(-c2ncccc2C(=O)NC(Cc2ccccc2)C(=O)C(N)=O)n1 (centres unmarked) [Example 121, N-[3-Amino-2,3-dioxo-1-(phenylmethyl)propyl]-2-{3-[3,5-dimethyl-2-(methyloxy)phenyl]-1H-pyrazol-1-yl}pyridine-3-carboxamide]
[1]
  Sel cat. S: Ki(cathepsin S)/Ki(calpain) ratio: ++ (++ means a Ki(cathepsin S)/Ki(calpain) ratio of ≧100)
[2]
  Sel cat. B: Ki(cathepsin B)/Ki(calpain) ratio: ++ (++ means a Ki(cathepsin B)/Ki(calpain) ratio of ≧30)
[3]
  Sel cat. K: Ki(cathepsin K)/Ki(calpain) ratio: ++ (++ means a Ki(cathepsin K)/Ki(calpain) ratio of ≧30)
[4]
  Sel cat. L: Ki(cathepsin L)/Ki(calpain) ratio: ++ (++ means a Ki(cathepsin L)/Ki(calpain) ratio of ≧50)

## NC(=O)C(=O)C(Cc1ccc(Cl)cc1)NC(=O)c1cccnc1-n1ccc(-c2ccccc2)n1 (centres unmarked) [Example 50, N-[3-Amino-1-(4-chlorobenzyl)-2,3-dioxopropyl]-2-(3-phenyl-1H-pyrazol-1-yl)nicotinamide]
[1]
  Sel cat. S: Ki(cathepsin S)/Ki(calpain) ratio: + (+ means 50≦Ki(cathepsin S)/Ki(calpain)<100)
[2]
  Sel cat. B: Ki(cathepsin B)/Ki(calpain) ratio: + (+ means 10≦Ki(cathepsin B)/Ki(calpain)<30)
[3]
  Sel cat. K: Ki(cathepsin K)/Ki(calpain) ratio: + (+ means 10≦Ki(cathepsin K)/Ki(calpain)<30)
[4]
  Sel cat. L: Ki(cathepsin L)/Ki(calpain) ratio: + (+ means 30≦Ki(cathepsin L)/Ki(calpain)<50)

## NC(=O)C(=O)C(Cc1ccccc1)NC(=O)c1cccnc1-n1ccc(-c2c(F)cc(F)cc2F)n1 (centres unmarked) [Example 116, N-[3-Amino-2,3-dioxo-1-(phenylmethyl)propyl]-2-[3-(2,4,6-trifluorophenyl)-1H-pyrazol-1-yl]pyridine-3-carboxamide]
[1]
  Sel cat. S: Ki(cathepsin S)/Ki(calpain) ratio: ++ (++ means a Ki(cathepsin S)/Ki(calpain) ratio of ≧100)
[2]
  Sel cat. B: Ki(cathepsin B)/Ki(calpain) ratio: ++ (++ means a Ki(cathepsin B)/Ki(calpain) ratio of ≧30)
[3]
  Sel cat. K: Ki(cathepsin K)/Ki(calpain) ratio: + (+ means 10≦Ki(cathepsin K)/Ki(calpain)<30)
[4]
  Sel cat. L: Ki(cathepsin L)/Ki(calpain) ratio: ++ (++ means a Ki(cathepsin L)/Ki(calpain) ratio of ≧50)

## NC(=O)C(=O)C(Cc1ccccc1)NC(=O)c1cccnc1-n1ccc(-c2ccc(N3CCCC3)cc2)n1 (centres unmarked) [Example 69, N-(3-Amino-1-benzyl-2,3-dioxopropyl)-2-[3-(4-pyrrolidin-1-ylphenyl)-1H-pyrazol-1-yl]nicotinamide]
[1]
  Sel cat. S: Ki(cathepsin S)/Ki(calpain) ratio: ++ (++ means a Ki(cathepsin S)/Ki(calpain) ratio of ≧100)
[2]
  Sel cat. B: Ki(cathepsin B)/Ki(calpain) ratio: + (+ means 10≦Ki(cathepsin B)/Ki(calpain)<30)
[3]
  Sel cat. K: Ki(cathepsin K)/Ki(calpain) ratio: + (+ means 10≦Ki(cathepsin K)/Ki(calpain)<30)
[4]
  Sel cat. L: Ki(cathepsin L)/Ki(calpain) ratio: ++ (++ means a Ki(cathepsin L)/Ki(calpain) ratio of ≧50)

## NC(=O)C(=O)C(Cc1ccccc1)NC(=O)c1cccnc1-n1ccc(-c2ccc(Cl)s2)n1 (centres unmarked) [Example 103, N-[3-Amino-2,3-dioxo-1-(phenylmethyl)propyl]-2-[3-(5-chloro-2-thienyl)-1H-pyrazol-1-yl]pyridine-3-carboxamide]
[1]
  Sel cat. S: Ki(cathepsin S)/Ki(calpain) ratio: ++ (++ means a Ki(cathepsin S)/Ki(calpain) ratio of ≧100)
[2]
  Sel cat. B: Ki(cathepsin B)/Ki(calpain) ratio: + (+ means 10≦Ki(cathepsin B)/Ki(calpain)<30)
[3]
  Sel cat. K: Ki(cathepsin K)/Ki(calpain) ratio: + (+ means 10≦Ki(cathepsin K)/Ki(calpain)<30)
[4]
  Sel cat. L: Ki(cathepsin L)/Ki(calpain) ratio: ++ (++ means a Ki(cathepsin L)/Ki(calpain) ratio of ≧50)

## NC(=O)C(=O)C(Cc1cccc(F)c1)NC(=O)c1cccnc1-n1ccc(-c2ccccc2OC(F)(F)F)n1 (centres unmarked) [Example 162, N-{3-Amino-1-[(3-fluorophenyl)methyl]-2,3-dioxopropyl}-2-(3-{2-[(trifluoromethyl)oxy]phenyl}-1H-pyrazol-1-yl)pyridine-3-carboxamide]
[1]
  Sel cat. S: Ki(cathepsin S)/Ki(calpain) ratio: ++ (++ means a Ki(cathepsin S)/Ki(calpain) ratio of ≧100)
[2]
  Sel cat. B: Ki(cathepsin B)/Ki(calpain) ratio: ++ (++ means a Ki(cathepsin B)/Ki(calpain) ratio of ≧30)
[3]
  Sel cat. K: Ki(cathepsin K)/Ki(calpain) ratio: ++ (++ means a Ki(cathepsin K)/Ki(calpain) ratio of ≧30)
[4]
  Sel cat. L: Ki(cathepsin L)/Ki(calpain) ratio: ++ (++ means a Ki(cathepsin L)/Ki(calpain) ratio of ≧50)

## NC(=O)C(=O)C(Cc1ccccc1)NC(=O)c1cccnc1-n1ccc(-c2ccccn2)n1 (centres unmarked) [Example 35, N-(3-Amino-1-benzyl-2,3-dioxopropyl)-2-(3-pyridin-2-yl-1H-pyrazol-1-yl)nicotinamide]
[1]
  Sel cat. S: Ki(cathepsin S)/Ki(calpain) ratio: ++ (++ means a Ki(cathepsin S)/Ki(calpain) ratio of ≧100)
[2]
  Sel cat. B: Ki(cathepsin B)/Ki(calpain) ratio: + (+ means 10≦Ki(cathepsin B)/Ki(calpain)<30)
[3]
  Sel cat. K: Ki(cathepsin K)/Ki(calpain) ratio: + (+ means 10≦Ki(cathepsin K)/Ki(calpain)<30)
[4]
  Sel cat. L: Ki(cathepsin L)/Ki(calpain) ratio: ++ (++ means a Ki(cathepsin L)/Ki(calpain) ratio of ≧50)

## NC(=O)C(=O)C(Cc1ccccc1)NC(=O)c1cccnc1-n1ccc(-c2cc(Cl)ccc2Cl)n1 (centres unmarked) [Example 112, N-[3-Amino-2,3-dioxo-1-(phenylmethyl)propyl]-2-[3-(2,5-dichlorophenyl)-1H-pyrazol-1-yl]pyridine-3-carboxamide]
[1]
  Sel cat. S: Ki(cathepsin S)/Ki(calpain) ratio: ++ (++ means a Ki(cathepsin S)/Ki(calpain) ratio of ≧100)
[2]
  Sel cat. B: Ki(cathepsin B)/Ki(calpain) ratio: ++ (++ means a Ki(cathepsin B)/Ki(calpain) ratio of ≧30)
[3]
  Sel cat. K: Ki(cathepsin K)/Ki(calpain) ratio: ++ (++ means a Ki(cathepsin K)/Ki(calpain) ratio of ≧30)
[4]
  Sel cat. L: Ki(cathepsin L)/Ki(calpain) ratio: ++ (++ means a Ki(cathepsin L)/Ki(calpain) ratio of ≧50)

## N-(3-Amino-1-{[4-(methyloxy)phenyl]methyl}-2,3-dioxopropyl)-2-{3-[3-(trifluoromethyl)phenyl]-1H-pyrazol-1-yl}pyridine-3-carboxamide [Example 126]
[1]
  Sel cat. S: Ki(cathepsin S)/Ki(calpain) ratio: ++ (++ means a Ki(cathepsin S)/Ki(calpain) ratio of ≧100)
[2]
  Sel cat. B: Ki(cathepsin B)/Ki(calpain) ratio: ++ (++ means a Ki(cathepsin B)/Ki(calpain) ratio of ≧30)
[3]
  Sel cat. K: Ki(cathepsin K)/Ki(calpain) ratio: ++ (++ means a Ki(cathepsin K)/Ki(calpain) ratio of ≧30)
[4]
  Sel cat. L: Ki(cathepsin L)/Ki(calpain) ratio: ++ (++ means a Ki(cathepsin L)/Ki(calpain) ratio of ≧50)

## NC(=O)C(=O)C(Cc1ccccc1)NC(=O)c1cccnc1-n1ccc(-c2ccc(C(F)(F)F)cc2)n1 (centres unmarked) [Example 60, N-(3-Amino-1-benzyl-2,3-dioxopropyl)-2-{3-[4-(trifluoromethyl)phenyl]-1H-pyrazol-1-yl}nicotinamide]
[1]
  Sel cat. S: Ki(cathepsin S)/Ki(calpain) ratio: + (+ means 50≦Ki(cathepsin S)/Ki(calpain)<100)
[2]
  Sel cat. B: Ki(cathepsin B)/Ki(calpain) ratio: + (+ means 10≦Ki(cathepsin B)/Ki(calpain)<30)
[3]
  Sel cat. K: Ki(cathepsin K)/Ki(calpain) ratio: + (+ means 10≦Ki(cathepsin K)/Ki(calpain)<30)
[4]
  Sel cat. L: Ki(cathepsin L)/Ki(calpain) ratio: ++ (++ means a Ki(cathepsin L)/Ki(calpain) ratio of ≧50)

## NC(=O)C(=O)C(Cc1ccccc1)NC(=O)c1cccnc1-n1cc2c(n1)-c1ccccc1S(=O)(=O)C2 (centres unmarked) [Example 174, N-[3-Amino-2,3-dioxo-1-(phenylmethyl)propyl]-2-(5,5-dioxidothiochromeno[4,3-c]pyrazol-2(4H)-yl)pyridine-3-carboxamide]
[1]
  Sel cat. S: Ki(cathepsin S)/Ki(calpain) ratio: ++ (++ means a Ki(cathepsin S)/Ki(calpain) ratio of ≧100)
[2]
  Sel cat. B: Ki(cathepsin B)/Ki(calpain) ratio: + (+ means 10≦Ki(cathepsin B)/Ki(calpain)<30)
[3]
  Sel cat. K: Ki(cathepsin K)/Ki(calpain) ratio: + (+ means 10≦Ki(cathepsin K)/Ki(calpain)<30)
[4]
  Sel cat. L: Ki(cathepsin L)/Ki(calpain) ratio: ++ (++ means a Ki(cathepsin L)/Ki(calpain) ratio of ≧50)

## NC(=O)C(=O)C(Cc1ccccc1)NC(=O)c1cccnc1-n1ccc(-c2c(F)ccc(Cl)c2Cl)n1 (centres unmarked) [Example 120, N-[3-Amino-2,3-dioxo-1-(phenylmethyl)propyl]-2-[3-(2,3-dichloro-6-fluorophenyl)-1H-pyrazol-1-yl]pyridine-3-carboxamide]
[1]
  Sel cat. S: Ki(cathepsin S)/Ki(calpain) ratio: ++ (++ means a Ki(cathepsin S)/Ki(calpain) ratio of ≧100)
[2]
  Sel cat. B: Ki(cathepsin B)/Ki(calpain) ratio: ++ (++ means a Ki(cathepsin B)/Ki(calpain) ratio of ≧30)
[3]
  Sel cat. K: Ki(cathepsin K)/Ki(calpain) ratio: ++ (++ means a Ki(cathepsin K)/Ki(calpain) ratio of ≧30)
[4]
  Sel cat. L: Ki(cathepsin L)/Ki(calpain) ratio: + (+ means 30≦Ki(cathepsin L)/Ki(calpain)<50)

## CS(=O)(=O)Nc1cnc(-n2ccc(-c3ccccc3)n2)c(C(=O)NC(Cc2ccccc2)C(=O)C(N)=O)c1 (centres unmarked) [Example 158, N-[3-Amino-2,3-dioxo-1-(phenylmethyl)propyl]-5-[(methylsulfonyl)amino]-2-(3-phenyl-1H-pyrazol-1-yl)pyridine-3-carboxamide]
[1]
  Sel cat. S: Ki(cathepsin S)/Ki(calpain) ratio: ++ (++ means a Ki(cathepsin S)/Ki(calpain) ratio of ≧100)
[2]
  Sel cat. B: Ki(cathepsin B)/Ki(calpain) ratio: ++ (++ means a Ki(cathepsin B)/Ki(calpain) ratio of ≧30)
[3]
  Sel cat. K: Ki(cathepsin K)/Ki(calpain) ratio: ++ (++ means a Ki(cathepsin K)/Ki(calpain) ratio of ≧30)
[4]
  Sel cat. L: Ki(cathepsin L)/Ki(calpain) ratio: ++ (++ means a Ki(cathepsin L)/Ki(calpain) ratio of ≧50)
